Patent US9388189B2, “Pyrrolotriazinone derivatives as PI3K inhibitors” (ALMIRALL, S.A., priority 2012, dated 2016)

These compounds were tested against PI3Kδ (PI3Kd) (Homo sapiens (Human), UniProt O00329) (assay: PI3K HTRF enzymatic inhibition assay (cell-free), delta isoform). Settings: read-out: IC50 PI3Kd HTRF; recombinant PI3K delta, [ATP] 15 μM, [PIP2] 2 μM, 30 min preincubation.
Chain of PI3Kδ (PI3Kd) (O00329 whole entry, canonical isoform): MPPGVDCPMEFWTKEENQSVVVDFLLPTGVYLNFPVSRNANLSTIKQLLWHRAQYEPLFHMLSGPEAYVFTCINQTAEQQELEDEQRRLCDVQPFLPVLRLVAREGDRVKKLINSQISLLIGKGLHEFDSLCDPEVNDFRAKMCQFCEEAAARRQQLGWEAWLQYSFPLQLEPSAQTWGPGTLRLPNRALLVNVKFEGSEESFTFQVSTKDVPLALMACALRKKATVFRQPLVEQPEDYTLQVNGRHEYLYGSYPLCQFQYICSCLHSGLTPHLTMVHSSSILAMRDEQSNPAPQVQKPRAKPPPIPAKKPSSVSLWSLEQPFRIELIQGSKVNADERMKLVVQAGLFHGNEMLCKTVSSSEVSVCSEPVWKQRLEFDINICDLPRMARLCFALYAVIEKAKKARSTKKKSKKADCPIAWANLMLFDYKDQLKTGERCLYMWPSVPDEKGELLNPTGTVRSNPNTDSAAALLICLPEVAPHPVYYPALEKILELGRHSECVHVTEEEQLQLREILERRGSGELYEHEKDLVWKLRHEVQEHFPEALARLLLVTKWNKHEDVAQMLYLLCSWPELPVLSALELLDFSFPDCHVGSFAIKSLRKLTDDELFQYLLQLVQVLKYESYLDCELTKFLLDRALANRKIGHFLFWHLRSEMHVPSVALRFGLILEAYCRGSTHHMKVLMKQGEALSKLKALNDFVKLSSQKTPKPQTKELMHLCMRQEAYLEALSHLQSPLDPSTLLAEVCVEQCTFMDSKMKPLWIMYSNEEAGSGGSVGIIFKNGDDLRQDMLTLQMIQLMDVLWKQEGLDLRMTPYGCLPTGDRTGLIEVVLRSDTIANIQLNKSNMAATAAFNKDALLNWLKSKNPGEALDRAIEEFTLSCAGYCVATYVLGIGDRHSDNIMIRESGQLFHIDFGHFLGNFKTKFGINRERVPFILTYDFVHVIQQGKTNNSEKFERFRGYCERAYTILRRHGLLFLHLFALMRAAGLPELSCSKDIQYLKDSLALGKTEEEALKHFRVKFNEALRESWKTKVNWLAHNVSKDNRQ
Chain of PI3Kδ (PI3Kd) (P27986 whole entry partner, canonical isoform): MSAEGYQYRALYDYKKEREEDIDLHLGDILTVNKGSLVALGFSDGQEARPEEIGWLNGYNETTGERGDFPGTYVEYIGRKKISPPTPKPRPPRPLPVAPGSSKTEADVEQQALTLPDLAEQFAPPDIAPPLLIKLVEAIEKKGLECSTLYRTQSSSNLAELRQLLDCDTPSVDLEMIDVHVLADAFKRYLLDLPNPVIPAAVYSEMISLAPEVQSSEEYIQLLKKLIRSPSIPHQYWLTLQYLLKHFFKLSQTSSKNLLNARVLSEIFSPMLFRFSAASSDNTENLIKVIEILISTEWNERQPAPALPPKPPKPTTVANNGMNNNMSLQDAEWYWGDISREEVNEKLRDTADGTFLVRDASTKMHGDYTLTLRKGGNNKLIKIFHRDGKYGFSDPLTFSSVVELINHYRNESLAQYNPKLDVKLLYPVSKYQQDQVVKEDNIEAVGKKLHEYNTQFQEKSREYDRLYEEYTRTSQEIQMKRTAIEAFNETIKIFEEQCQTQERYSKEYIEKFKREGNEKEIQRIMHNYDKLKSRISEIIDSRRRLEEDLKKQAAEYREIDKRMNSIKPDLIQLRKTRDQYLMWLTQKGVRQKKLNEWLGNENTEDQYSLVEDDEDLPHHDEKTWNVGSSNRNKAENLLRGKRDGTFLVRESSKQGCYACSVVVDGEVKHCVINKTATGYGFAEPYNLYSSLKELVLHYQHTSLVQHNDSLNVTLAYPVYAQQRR
Source text: Compounds were screened for their ability to inhibit PI3Kα (PI3Ka), PI3Kβ (PI3Kb), PI3Kδ (PI3Kd) and PI3Kγ (PI3Kg) using a cell-free based PI3K HTRF™ assay (Millipore, ref. #33-017).
PI-3 Kinase HTRF kit (ref. #33-037) and the different PI3K recombinant isoforms (ref. #14-602, ref. #14-603, ref. #14-604, ref. #15-558 for Alpha, Beta, Delta and Gamma respectively) were purchased at Millipore (expressed in insect cells). ATP was purchased at Sigma Aldrich (ref. #A7699).
The compounds were pre-incubated with the enzyme for 30 min before starting of the catalytic reaction. [PIP2] was used at its Km. […] Time of assay and [Enzyme] were optimized to work in the linear range. Stop and Detection mixtures were used as specified in the Millipore PI-3 Kinase kit.
Reaction time and enzyme concentration in the assay will depend of each batch.
All experiments were analysed using Activity Base software from IDBS and the four-parameter log equation.

Row | IC50 [nM] | Compound
1 | 10 | Cc1ccn2nc([C@H](C)Nc3ncnc4sccc34)n(-c3ccccc3)c(=O)c12 [Example 59, (S)-5-Methyl-3-phenyl-2-(1-(thieno[2,3-d]pyrimidin-4-ylamino)ethyl)pyrrolo[2,1-f][1,2,4]triazin-4(3H)-one]
2 | 16 | Cc1ccn2nc([C@H](C)Nc3ncnc(N)c3Cc3cccc(O)c3)n(-c3ccccc3)c(=O)c12 [Example 64, (S)-2-(1-((6-Amino-5-(3-hydroxybenzyl)pyrimidin-4-yl)amino)ethyl)-5-methyl-3-phenylpyrrolo[2,1-f][1,2,4]triazin-4(3H)-one]
3 | 36 | C[C@H](Nc1ncnc(N)c1C#N)c1nn2ccc(Cc3cccc(O)c3)c2c(=O)n1-c1ccccc1 [Example 74, (S)-4-Amino-6-((1-(5-(3-hydroxybenzyl)-4-oxo-3-phenyl-3,4-dihydropyrrolo[2,1-f][1,2,4]triazin-2-yl)ethyl)amino)pyrimidine-5-carbonitrile]
4 | 0.8 | Cc1ccn2nc([C@H](C)Nc3ncnc4[nH]cc(-c5cc(NS(C)(=O)=O)cc(N(C)C)c5)c34)n(-c3ccccc3)c(=O)c12 [Example 76, (S)—N-(3-(Dimethylamino)-5-(4-((1-(5-methyl-4-oxo-3-phenyl-3,4-dihydropyrrolo[2,1-f][1,2,4]triazin-2-yl)ethyl)amino)-7H-pyrrolo[2,3-d]pyrimidin-5-yl)phenyl)methanesulfonamide]
5 | 0.4 | Cc1ccn2nc([C@H](C)Nc3ncnc4[nH]cc(Cc5cc(O)cc(F)c5)c34)n(-c3ccccc3)c(=O)c12 [Example 78, (S)-2-(1-((5-(3-Fluoro-5-hydroxybenzyl)-7H-pyrrolo[2,3-d]pyrimidin-4-yl)amino)ethyl)-5-methyl-3-phenylpyrrolo[2,1-f][1,2,4]triazin-4(3H)-one]
6 | 0.3 | Cc1ccn2nc([C@H](C)Nc3ncnc4[nH]cc(C#Cc5ccccc5)c34)n(-c3ccccc3)c(=O)c12 [Example 80, (S)-5-Methyl-3-phenyl-2-(1-((5-(phenylethynyl)-7H-pyrrolo[2,3-d]pyrimidin-4-yl)amino)ethyl)pyrrolo[2,1-f][1,2,4]triazin-4(3H)-one]
7 | 0.3 | Cc1ccn2nc([C@H](C)Nc3ncnc4[nH]cc(-c5cccc(S(=O)(=O)N6CCOCC6)c5)c34)n(-c3ccccc3)c(=O)c12 [Example 85, (S)-5-Methyl-2-(1-((5-(3-(morpholinosulfonyl)phenyl)-7H-pyrrolo[2,3-d]pyrimidin-4-yl)amino)ethyl)-3-phenylpyrrolo[2,1-f][1,2,4]triazin-4(3H)-one]
8 | 2 | Cc1ccn2nc([C@H](C)Nc3ncnc4[nH]cc(Sc5ccc(O)cc5)c34)n(-c3ccccc3)c(=O)c12 [Example 97, (S)-2-(1-((5-((4-Hydroxyphenyl)thio)-7H-pyrrolo[2,3-d]pyrimidin-4-yl)amino)ethyl)-5-methyl-3-phenylpyrrolo[2,1-f][1,2,4]triazin-4(3H)-one]
9 | 1 | Cc1ccn2nc([C@H](C)Nc3ncnc4[nH]cc(-c5cccc(Cl)c5O)c34)n(-c3ccccc3)c(=O)c12 [Example 104, (S)-2-(1-((5-(3-Chloro-2-hydroxyphenyl)-7H-pyrrolo[2,3-d]pyrimidin-4-yl)amino)ethyl)-5-methyl-3-phenylpyrrolo[2,1-f][1,2,4]triazin-4(3H)-one]
10 | 0.4 | Cc1ccn2nc([C@H](C)Nc3ncnc(N)c3-c3cccc(NS(=O)(=O)c4ccc(O)cc4)c3)n(-c3ccccc3)c(=O)c12 [Example 106, (S)—N-(3-(4-Amino-6-((1-(5-methyl-4-oxo-3-phenyl-3,4-dihydropyrrolo[2,1-f][1,2,4]triazin-2-yl)ethyl)amino)pyrimidin-5-yl)phenyl)-4-hydroxybenzenesulfonamide]
11 | 2 | Cc1ccn2nc([C@H](C)Nc3ncnc4[nH]cc(-c5cnn(CCN(C)C)c5)c34)n(-c3ccccc3)c(=O)c12 [Example 107, (S)-2-(1-((5-(1-(2-(Dimethylamino)ethyl)-1H-pyrazol-4-yl)-7H-pyrrolo[2,3-d]pyrimidin-4-yl)amino)ethyl)-5-methyl-3-phenylpyrrolo[2,1-f][1,2,4]triazin-4(3H)-one]
12 | 0.5 | Cc1ccn2nc([C@H](C)Nc3ncnc(N)c3-c3cncc(C(F)(F)F)c3)n(-c3ccccc3)c(=O)c12 [Example 114, (S)-2-(1-((6-Amino-5-(5-(trifluoromethyl)pyridin-3-yl)pyrimidin-4-yl)amino)ethyl)-5-methyl-3-phenylpyrrolo[2,1-f][1,2,4]triazin-4(3H)-one]
13 | 1 | Cc1ccn2nc([C@H](C)Nc3ncnc(N)c3-c3cnn(CCO)c3)n(-c3ccccc3)c(=O)c12 [Example 116, (S)-2-(1-((6-Amino-5-(1-(2-hydroxyethyl)-1H-pyrazol-4-yl)pyrimidin-4-yl)amino)ethyl)-5-methyl-3-phenylpyrrolo[2,1-f][1,2,4]triazin-4(3H)-one]
14 | 156 | Cc1ccn2nc([C@H](C)Nc3ncnc(N)c3C(=O)N3CC[C@H](O)C3)n(-c3ccccc3)c(=O)c12 [Example 119, 3-((S)-1-((6-Amino-5-((S)-3-hydroxypyrrolidine-1-carbonyl)pyrimidin-4-yl)amino)ethyl)-8-methyl-2-phenylpyrrolo[2,1-f][1,2,4]triazin-1 (2H)-one]
15 | 0.4 | CCNc1nnc(-c2c[nH]c3ncnc(N[C@@H](C)c4nn5ccc(C)c5c(=O)n4-c4ccccc4)c23)s1 [Example 120, (S)-2-(1-((5-(5-(Ethylamino)-1,3,4-thiadiazol-2-yl)-7H-pyrrolo[2,3-d]pyrimidin-4-yl)amino)ethyl)-5-methyl-3-phenylpyrrolo[2,1-f][1,2,4]triazin-4(3H)-one]
16 | 0.7 | Cc1ccn2nc([C@H](C)Nc3ncnc4[nH]cc(-c5cc(O)cc(NS(=O)(=O)c6ccc(O)cc6)c5)c34)n(-c3ccccc3)c(=O)c12 [Example 125, (S)-4-Hydroxy-N-(3-hydroxy-5-(4-((1-(5-methyl-4-oxo-3-phenyl-3,4-dihydropyrrolo[2,1-f][1,2,4]triazin-2-yl)ethyl)amino)-7H-pyrrolo[2,3-d]pyrimidin-5-yl)phenyl)benzenesulfonamide]
17 | 0.4 | Cc1ccn2nc([C@H](C)Nc3ncnc(N)c3-c3cncc(OC(F)F)c3)n(-c3ccccc3)c(=O)c12 [Example 127, (S)-2-(1-((6-Amino-5-(5-(difluoromethoxy)pyridin-3-yl)pyrimidin-4-yl)amino)ethyl)-5-methyl-3-phenylpyrrolo[2,1-f][1,2,4]triazin-4(3H)-one]
18 | 4 | CC(C)N1CCN(C(=O)CCCC#Cc2ccn3nc([C@H](C)Nc4ncnc(N)c4C#N)n(-c4ccccc4)c(=O)c23)CC1 [Example 128, (S)-4-Amino-6-((1-(5-(6-(4-isopropylpiperazin-1-yl)-6-oxohex-1-yn-1-yl)-4-oxo-3-phenyl-3,4-dihydropyrrolo[2,1-f][1,2,4]triazin-2-yl)ethyl)amino)pyrimidine-5-carbonitrile]
19 | 1 | Cc1ccn2nc([C@H](C)Nc3ncnc(N)c3-c3cc(O)cc(NS(=O)(=O)c4ccc(F)cc4F)c3)n(-c3ccccc3)c(=O)c12 [Example 130, (S)—N-(3-(4-Amino-6-((1-(5-methyl-4-oxo-3-phenyl-3,4-dihydropyrrolo[2,1-f][1,2,4]triazin-2-yl)ethyl)amino)pyrimidin-5-yl)-5-hydroxyphenyl)-2,4-difluorobenzenesulfonamide]
20 | 2 | Cc1ccn2nc([C@H](C)Nc3ncnc(N)c3-c3cncc(OCC(F)(F)F)c3)n(-c3ccccc3)c(=O)c12 [Example 132, (S)-2-(1-((6-Amino-5-(5-(2,2,2-trifluoroethoxyl)pyridin-3-yl)pyrimidin-4-yl)amino)ethyl)-5-methyl-3-phenylpyrrolo[2,1-f][1,2,4]triazin-4(3H)-one]
21 | 4 | COc1cc(-c2c(N)ncnc2N[C@@H](C)c2nn3ccc(C)c3c(=O)n2-c2ccccc2)cc(C(F)(F)F)n1 [Example 137, (S)-2-(1-((6-Amino-5-(2-methoxy-6-(trifluoromethyl)pyridin-4-yl)pyrimidin-4-yl)amino)ethyl)-5-methyl-3-phenylpyrrolo[2,1-f][1,2,4]triazin-4(3H)-one]
22 | 0.2 | Cc1ccn2nc([C@H](C)Nc3ncnc4[nH]cc(-c5cnc6[nH]ccc6c5)c34)n(-c3ccccc3)c(=O)c12 [Example 139, (S)-2-(1-((5-(1H-Pyrrolo[2,3-b]pyridin-5-yl)-7H-pyrrolo[2,3-d]pyrimidin-4-yl)amino)ethyl)-5-methyl-3-phenylpyrrolo[2,1-f][1,2,4]triazin-4(3H)-one]
23 | 0.2 | Cc1ccn2nc([C@H](C)Nc3ncnc4[nH]cc(-c5cnn(CCCO)c5)c34)n(-c3ccccc3)c(=O)c12 [Example 140, (S)-2-(1-((5-(1-(3-Hydroxypropyl)-1H-pyrazol-4-yl)-7H-pyrrolo[2,3-d]pyrimidin-4-yl)amino)ethyl)-5-methyl-3-phenylpyrrolo[2,1-f][1,2,4]triazin-4(3H)-one]
24 | 2 | Cc1ccn2nc([C@H](C)Nc3ncnc4[nH]cc(-c5ccn(CCN6CCOCC6)n5)c34)n(-c3ccccc3)c(=O)c12 [Example 144, (S)-5-Methyl-2-(1-((5-(1-(2-morpholinoethyl)-1H-pyrazol-3-yl)-7H-pyrrolo[2,3-d]pyrimidin-4-yl)amino)ethyl)-3-phenylpyrrolo[2,1-f][1,2,4]triazin-4(3H)-one]
25 | 0.2 | Cc1ccn2nc([C@H](C)Nc3ncnc4[nH]cc(-c5ccn(CC(F)(F)F)n5)c34)n(-c3ccccc3)c(=O)c12 [Example 145, (S)-5-Methyl-3-phenyl-2-(1-((5-(1-(2,2,2-trifluoroethyl)-1H-pyrazol-3-yl)-7H-pyrrolo[2,3-d]pyrimidin-4-yl)amino)ethyl)pyrrolo[2,1-f][1,2,4]triazin-4(3H)-one]
26 | 0.4 | COc1cc(C#N)cc(-c2c[nH]c3ncnc(N[C@@H](C)c4nn5ccc(C)c5c(=O)n4-c4ccccc4)c23)c1 [Example 147, (S)-3-Methoxy-5-(4-((1-(5-methyl-4-oxo-3-phenyl-3,4-dihydropyrrolo[2,1-f][1,2,4]triazin-2-yl)ethyl)amino)-7H-pyrrolo[2,3-d]pyrimidin-5-yl)benzonitrile]
